EP4559908A1, “HETEROARYL DERIVATIVE COMPOUND AND USE THEREOF” (S2CBio Inc., priority 2022, dated 2024)

Biological target: T1, human ANO6 (variant 5) (Homo sapiens, UniProt Q4KMQ2)
T1 construct: expressed in transfected cells; host or cells: Fischer rat thyroid (FRT) cells
T1 sequence (Q4KMQ2 1-931 isoform Q4KMQ2-2): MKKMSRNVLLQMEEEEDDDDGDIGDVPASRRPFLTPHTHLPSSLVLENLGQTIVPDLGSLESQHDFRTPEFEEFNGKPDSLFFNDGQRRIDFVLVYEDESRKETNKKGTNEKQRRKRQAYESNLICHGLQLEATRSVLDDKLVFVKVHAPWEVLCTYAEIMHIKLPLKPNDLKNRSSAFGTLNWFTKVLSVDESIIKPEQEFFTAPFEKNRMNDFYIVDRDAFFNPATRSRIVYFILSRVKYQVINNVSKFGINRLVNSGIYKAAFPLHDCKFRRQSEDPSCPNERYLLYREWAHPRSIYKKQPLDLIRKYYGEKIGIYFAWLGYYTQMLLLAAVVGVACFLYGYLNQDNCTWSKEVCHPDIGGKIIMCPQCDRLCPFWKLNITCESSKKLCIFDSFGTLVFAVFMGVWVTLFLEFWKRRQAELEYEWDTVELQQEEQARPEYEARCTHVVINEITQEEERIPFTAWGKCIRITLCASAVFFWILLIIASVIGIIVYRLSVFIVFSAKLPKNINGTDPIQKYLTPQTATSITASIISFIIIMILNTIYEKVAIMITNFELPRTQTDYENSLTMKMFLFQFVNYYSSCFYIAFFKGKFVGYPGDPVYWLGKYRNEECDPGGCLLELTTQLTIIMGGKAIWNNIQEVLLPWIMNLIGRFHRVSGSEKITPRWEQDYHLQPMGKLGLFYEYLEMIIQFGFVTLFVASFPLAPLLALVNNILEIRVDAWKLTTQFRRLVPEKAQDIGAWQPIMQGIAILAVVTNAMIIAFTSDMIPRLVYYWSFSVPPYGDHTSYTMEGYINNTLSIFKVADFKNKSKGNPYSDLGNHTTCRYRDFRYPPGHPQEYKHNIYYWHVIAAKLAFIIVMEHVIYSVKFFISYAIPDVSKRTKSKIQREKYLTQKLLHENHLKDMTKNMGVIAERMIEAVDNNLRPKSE
Assay: Lact C2 assay (measuring phosphatidylserine externalization scramblase function)
Type: cell-based
Conditions: FRT, FRT cells expressing human ANO6 (variant 5), ionomycin 10 µM, Lact-C2-GFP fluorescence, average of three tests; for inhibition at 0.05 µM: compound 50 nM, read-out: % Inhibition 50 nM; for inhibition at 0.1 µM: compound 100 nM; for inhibition at 1 µM: compound 1 µM, read-out: % Inhibition 1 µM
Procedure: Ionomycin (Alomonelab, cat. # I-700), DAPI (Sigma- Aldrich, cat. # D8417), paraformaldehyde (Biosesang, cat. #P2031), Lionheart FX automated fluorescence microscope (BioTek), Gen5™ software program (BioTek), and Image J analysis software program.
After the incubation, the cells were treated with compounds dissolved in DMSO to 1% v/v in each well at each concentration (50 nM, 100 nM, and 1 µM) and reacted for 10 minutes. Thereafter, each well was treated with ionomycin to a final concentration of 10 µM, allowed to react for 10 minutes, and then washed with 200 µL PBS. After washing, each well was treated with 50 µL of Lactadherin-C2 (Lact-C2)-GFP mixed in DMEM medium to a final concentration of 500 nM to stain phosphatidylserine, and cultured at 37°C for 10 minutes. After completion of the reaction, the cells were washed with 200 µL PBS, and fixed with 4% paraformaldehyde for 5 minutes at room temperature. For morphological analysis, DAPI solution was added, and the cells were incubated for 15 minutes, followed by washing with PBS. The fluorescence intensity of Lact-C2-GFP bound to phosphatidylserine on the cell surface was measured using an automated fluorescence microscope. For quantitative analysis of the fluorescence intensity of Lact-C2-GFP, BioTek Gen5™ software and Image J analysis software programs were used.
Phosphatidylserine externalization inhibitory activity (%) by the compound was calculated through the following analysis method. Specifically, the background fluorescence value was subtracted from the measured Lact-C2-GFP fluorescence value, and the fluorescence value of the ionomycin non-treatment group and the ionomycin-treatment group in the same row where each test group was located in a 96-well microplate were calculated. In order to calculate the inhibitory activity (%) by the compound, the relative inhibitory activity was calculated by setting the compound and ionomycin non-treatment group to 100% inhibitory activity and the ionomycin alone treatment group to 0% inhibitory activity.

Row | Structure (SMILES) | inhibition at 0.05 µM [%] | inhibition at 0.1 µM [%] | inhibition at 1 µM [%]
1 | FC(F)(F)c1ccc2nc(-c3cccc(Nc4ccc(-c5ccccc5)nn4)c3)[nH]c2c1 [Example 1, 6-phenyl-N-(3-(6-(trifluoromethyl)-1H-benzo[d]imidazol-2-yl)phenyl)pyridazin-3-amine] | 30 to 60 | > 60 | > 60
2 | c1ccc(-c2ccc(Nc3cccc(-c4nc5ccccc5[nH]4)c3)nn2)cc1 [Example 2, N-(3-(1H-benzo[d]imidazol-2-yl)phenyl)-6-phenylpyridazin-3-amine] | – | > 60 | > 60
3 | CC(C)(C)c1ccc2nc(-c3cccc(Nc4ccc(-c5ccccc5)nn4)c3)[nH]c2c1 [Example 3, N-[3-(6-tert-butyl-1H-benzo[d]imidazol-2-yl)phenyl]-6-phenylpyridazin-3-amine] | > 60 | > 60 | > 60
4 | Fc1cc2nc(-c3cccc(Nc4ccc(-c5ccccc5)nn4)c3)[nH]c2cc1Br [Example 4, N-[3-(6-bromo-5-fluoro-1H-benzo[d]imidazol-2-yl)phenyl]-6-phenylpyridazin-3-amine] | 30 to 60 | > 60 | > 60
5 | FC(F)(F)Oc1ccc2nc(-c3cccc(Nc4ccc(-c5ccccc5)nn4)c3)[nH]c2c1 [Example 6, 6-phenyl-N-(3-(6-(trifluoromethoxy)-1H-benzo[d]imidazol-2-yl)phenyl)pyridazin-3-amine] | – | > 60 | > 60
6 | Clc1cc2nc(-c3cccc(Nc4ccc(-c5ccccc5)nn4)c3)[nH]c2cc1Cl [Example 7, N-(3-(5,6-dichloro-1H-benzo[d]imidazol-2-yl)phenyl)-6-phenylpyridazin-3-amine] | > 60 | > 60 | > 60
7 | FC(F)(F)c1cc2nc(-c3cccc(Nc4ccc(-c5ccccc5)nn4)c3)[nH]c2cc1Cl [Example 8, N-{3-[6-chloro-5-(trifluoromethyl)-1H-benzo[d]imidazol-2-yl]phenyl}-6-phenylpyridazin-3-amine] | > 60 | > 60 | > 60
8 | FC(F)(F)c1cc2nc(-c3cccc(Nc4ccc(-c5ccccc5)nn4)c3)[nH]c2cc1Br [Example 9, N-{3-[6-bromo-5-(trifluoromethyl)-1H-benzo[d]imidazol-2-yl]phenyl}-6-phenylpyridazin-3-amine] | > 60 | > 60 | > 60
9 | FC(F)(F)Oc1cc2nc(-c3cccc(Nc4ccc(-c5ccccc5)nn4)c3)[nH]c2cc1Cl [Example 10, N-{3-[6-chloro-5-(trifluoromethoxy)-1H-benzo[d]imidazol-2-yl]phenyl}-6-phenylpyridazin-3-amine] | > 60 | > 60 | > 60
10 | Fc1cc(Br)c2[nH]c(-c3cccc(Nc4ccc(-c5ccccc5)nn4)c3)nc2c1 [Example 11, N-(3-(7-bromo-5-fluoro-1H-benzo[d]imidazol-2-yl)phenyl)-6-phenylpyridazin-3-amine] | – | 30 to 60 | > 60
11 | Clc1ccc2nc(-c3cccc(Nc4ccc(-c5ccccc5)nn4)c3)[nH]c2c1 [Example 12, N-[3-(6-chloro-1H-benzo[d]imidazol-2-yl)phenyl]-6-phenylpyridazin-3-amine] | > 60 | > 60 | > 60
12 | Clc1cc2nc(-c3cccc(Nc4ccc(-c5ccccc5)cn4)c3)[nH]c2cc1Cl [Example 13, N-[3-(5,6-dichloro-1H-benzo[d]imidazol-2-yl)phenyl]-5-phenylpyridin-2-amine] | > 60 | > 60 | > 60
13 | FC(F)(F)c1ccc2nc(-c3cccc(Nc4ncc(-c5ccccc5)cn4)c3)[nH]c2c1 [Example 14, 5-phenyl-N-(3-(6-(trifluoromethyl)-1H-benzo[d]imidazol-2-yl)phenyl)pyrimidin-2-amine] | > 60 | > 60 | > 60
14 | FC(F)(F)c1ccc2nc(-c3cccc(Nc4ccc(-c5ccccc5)cn4)c3)[nH]c2c1 [Example 15, 5-Phenyl-N-{3-[6-(trifluoromethyl)-1H-benzo[d]imidazol-2-yl]phenyl}pyridin-2-amine] | > 60 | > 60 | > 60
15 | Fc1cccc(-c2cnc(Nc3cccc(-c4nc5ccc(C(F)(F)F)cc5[nH]4)c3)nc2)c1 [Example 17, 5-(3-Fluorophenyl)-N-{3-[6-(trifluoromethyl)-1H-benzo[d]imidazol-2-yl]phenyl}pyrimidin-2-amine] | > 60 | > 60 | > 60
16 | Fc1cccc(-c2ccc(Nc3cccc(-c4nc5ccc(C(F)(F)F)cc5[nH]4)c3)nc2)c1 [Example 18, 5-(3-fluorophenyl)-N-(3-(6-(trifluoromethyl)-1H-benzo[d]imidazol-2-yl)phenyl)pyridin-2-amine] | > 60 | > 60 | > 60
17 | c1ccc(-c2ccc(Nc3cccc(-c4nc5ccccc5[nH]4)c3)cc2)cc1 [Example 19, N-[3-(1H-benzo[d]imidazol-2-yl)phenyl]-[1,1'-biphenyl]-4-amine] | 30 to 60 | > 60 | > 60
18 | c1ccc(-c2ccc(Nc3cccc(-c4nc5ccccc5[nH]4)c3)cc2)nc1 [Example 20, 3-(1H-benzo[d]imidazol-2-yl)-N-(4-(pyridin-2-yl)phenyl)aniline] | > 60 | > 60 | > 60
19 | c1cc(Nc2ccc(-c3cccnn3)cc2)cc(-c2nc3ccccc3[nH]2)c1 [Example 21, 3-(1H-benzo[d]imidazol-2-yl)-N-(4-(pyridazin-3-yl)phenyl)aniline] | > 60 | > 60 | > 60
20 | c1cc(Nc2ccc(-c3ccncn3)cc2)cc(-c2nc3ccccc3[nH]2)c1 [Example 22, N-[3-(1H-benzo[d]imidazol-2-yl)phenyl]-4-(pyrimidin-4-yl)aniline] | > 60 | > 60 | > 60
21 | FC(F)(F)c1ccc2nc(-c3cccc(Nc4ccc(-c5cccnn5)cc4)c3)[nH]c2c1 [Example 23, N-(4-(pyridazin-3-yl)phenyl)-3-(6-(trifluoromethyl)-1H-benzo[d]imidazol-2-yl)aniline] | > 60 | > 60 | > 60
22 | FC(F)(F)c1ccc2nc(-c3cccc(Nc4ccc(-c5ccncn5)cc4)c3)[nH]c2c1 [Example 24, N-(4-(pyrimidin-4-yl)phenyl)-3-(6-(trifluoromethyl)-1H-benzo[d]imidazol-2-yl)aniline] | > 60 | > 60 | > 60
23 | Fc1ccc2nc(-c3cccc(Nc4ccc(-c5cccnn5)cc4)c3)[nH]c2c1 [Example 25, 3-(6-fluoro-1H-benzo[d]imidazol-2-yl)-N-(4-(pyridazin-3-yl)phenyl)aniline] | > 60 | > 60 | > 60
